Measured values: ChEMBL document CHEMBL5338705, “Discovery of 1,3,4-oxadiazole derivatives containing a bisamide moiety as a novel class of potential cardioprotective agents” (Eur J Med Chem, 2022)
Calls of active or inactive are those of the source. The rule behind the calls is not given here.

How the values were obtained:
[1] = system: H9c2; assay: Cytoprotective activity against H2O2-induced oxidative damage in rat H9c2 cells assessed as fold reduction in cell viability at 20 uM preincubated for 24 hrs followed by H2O2 treatment for another 1.5 hrs by MTT assay; assay type: functional; conditions: time 25.5 hrs
[2] = system: H9c2; assay: Cytoprotective activity against H2O2-induced oxidative damage in rat H9c2 cells assessed as cell viability at 20 uM preincubated for 24 hrs followed by H2O2 treatment for another 1.5 hrs by MTT assay (reference value: 32.52 to 44.40%); assay type: functional; conditions: time 25.5 hrs, read-out: Activity
[3] = system: H9c2; assay: Downregulation of H2O2 induced BNP level in rat H9c2 cells at 80 uM measured after 1.5 hrs by qRT-PCR analysis; assay type: functional, cell-based
[4] = system: H9c2; assay: Antioxidant activity in H2O2-induced oxidative stress in rat H9c2 cells assessed as increase in expression of Nrf2 level at 80 uM measured after 1.5 hrs by Western blotting analysis; assay type: functional, cell-based
[5] = system: H9c2; assay: Anti-apoptotic activity in H202 induced rat H9c2 cells assessed as decrease in Bcl2 level at 80 uM measured after 1.5 hrs by Western blot analysis; assay type: functional, cell-based
[6] = system: H9c2; assay: Protection against H2O2-induced cell damage in rat H9c2 cells assessed as recovery of cell death at 100 uM; assay type: functional, cell-based
[7] = system: H9c2; assay: Anti-apoptotic activity in H202 induced rat H9c2 cells assessed as increase in caspase 3 level at 80 uM measured after 1.5 hrs by Western blot analysis; assay type: functional, cell-based
[8] = system: H9c2; assay: Antioxidant activity in H2O2-induced oxidative stress in rat H9c2 cells assessed as increase in expression of NQO1 level at 80 uM measured after 1.5 hrs by Western blotting analysis; assay type: functional, cell-based
[9] = system: H9c2; assay: Protection against H2O2-induced cell damage in rat H9c2 cells assessed as recovery of cell shrinkage at 100 uM; assay type: functional, cell-based
[10] = system: H9c2; assay: Downregulation of H2O2 induced ANP level in rat H9c2 cells at 80 uM measured after 1.5 hrs by qRT-PCR analysis; assay type: functional, cell-based
[11] = system: H9c2; assay: Cytoprotective activity against H2O2-induced oxidative damage in rat H9c2 cells assessed as cell viability at 80 uM preincubated for 24 hrs followed by H2O2 treatment for another 1.5 hrs by MTT assay; assay type: functional, cell-based; conditions: time 25.5 hrs
[12] = system: H9c2; assay: Anti-apoptotic activity in H202 induced rat H9c2 cells assessed as increase in caspase 9 level at 80 uM measured after 1.5 hrs by Western blot analysis; assay type: functional, cell-based
[13] = system: H9c2; assay: Anti-apoptotic activity in H202 induced rat H9c2 cells assessed as increase in Bax level at 80 uM measured after 1.5 hrs by Western blot analysis; assay type: functional, cell-based
[14] = system: H9c2; assay: Cytoprotective activity against H2O2-induced oxidative damage in rat H9c2 cells assessed as reduction in cell viability at 100 uM incubated for 24 hrs followed by low concentration of H2O2 treatment and measured after 24 hrs by MTT assay relative to control; assay type: functional; conditions: time 48 hrs
[15] = system: H9c2; assay: Downregulation of H2O2 induced BNP level in rat H9c2 cells measured after 1.5 hrs by qRT-PCR analysis; assay type: functional, cell-based; conditions: dose <= 80.0 µM
[16] = system: H9c2; assay: Downregulation of H2O2 induced ANP level in rat H9c2 cells measured after 1.5 hrs by qRT-PCR analysis; assay type: functional, cell-based; conditions: dose <= 80.0 µM
[17] = system: H9c2; assay: Antioxidant activity in H2O2-induced oxidative stress in rat H9c2 cells assessed as increase in expression of NQO1 level at upto 80 uM measured after 1.5 hrs by Western blotting analysis; assay type: functional, cell-based
[18] = system: H9c2; assay: Anti-apoptotic activity in H202 induced rat H9c2 cells assessed as increase in caspase 3 level at 20 to 80 uM measured after 1.5 hrs by Western blot analysis; assay type: functional, cell-based; conditions: dose 20-80 µM
[19] = system: H9c2; assay: Antioxidant activity in H2O2-induced oxidative stress in rat H9c2 cells assessed as increase in expression of Nrf2 level at upto 80 uM measured after 1.5 hrs by Western blotting analysis; assay type: functional, cell-based
[20] = system: H9c2; assay: Anti-apoptotic activity in H202 induced rat H9c2 cells assessed as decrease in Bcl2 level at 20 to 80 uM measured after 1.5 hrs by Western blot analysis; assay type: functional, cell-based; conditions: dose 20-80 µM
[21] = system: H9c2; assay: Anti-apoptotic activity in H202 induced rat H9c2 cells assessed as increase in Bax level at 20 to 80 uM measured after 1.5 hrs by Western blot analysis; assay type: functional, cell-based; conditions: dose 20-80 µM
[22] = system: H9c2; assay: Anti-apoptotic activity in H202 induced rat H9c2 cells assessed as increase in caspase 9 level at 20 to 80 uM measured after 1.5 hrs by Western blot analysis; assay type: functional, cell-based; conditions: dose 20-80 µM
[23] = system: H9c2; assay: Cytotoxicity against rat H9c2 cells at 10 to 100 uM measured after 48 to 72 hrs by MTT assay; assay type: toxicity, cell-based; conditions: h9c2, 100 µM, dose lower 10 µM, time lower 48 hrs, dose upper 100 µM, time upper 72 hrs
[24] = system: H9c2; assay: Cytoprotective activity against H2O2-induced oxidative damage in rat H9c2 cells assessed as cell viability preincubated for 24 hrs followed by H2O2 treatment for another 1.5 hrs by MTT assay; assay type: functional, cell-based; conditions: dose 0-80 µM, time 25.5 hrs

SMILES	fold change (FC) [1]	viability at 20 µM [2] [%]	also measured
O=C(CSc1nnc(-c2ccc(O)cc2)o1)NC(=O)Nc1ncccn1	1.49	59.1	
O=C(CSc1nnc(-c2ccccc2)o1)NC(=O)Nc1ccc(Cl)cc1	1.14	37.6	
COc1ccc(NC(=O)CSc2nnc(-c3ccccc3)o2)cc1	1.46	52.6	
COc1ccccc1NC(=O)NC(=O)CSc1nnc(-c2ccccc2)o1	1.43	47	
O=C(CSc1nnc(-c2ccc(O)cc2)o1)NC(=O)Nc1ccccn1	1.92	85.2	
COc1cccc(NC(=O)NC(=O)CSc2nnc(-c3ccccc3)o2)c1	0.69	22.6	Activity [3]: inactive; Activity [4]: inactive; Activity [5]: inactive; Activity [6]: inactive; Activity [7]: inactive; Activity [8]: inactive; Activity [9]: inactive; Activity [10]: inactive; Activity [11]: inactive; Activity [12]: inactive; Activity [13]: inactive
O=C(CSc1nnc(-c2ccc(Cl)cc2)o1)NC(=O)Nc1ccccc1	1.23	51.5	
COc1ccc(NC(=O)NC(=O)CSc2nnc(-c3ccccc3)[nH]2)cc1	1.69	64.4	
O=C(CSc1nnc(-c2ccccc2O)o1)NC(=O)Nc1ccccc1	1.45	60.7	
O=C(CSc1nnc(-c2ccc(O)cc2)o1)NC(=O)Nc1nccs1	0.93	36.8	
O=C(CSc1nnc(-c2ccccn2)o1)NC(=O)Nc1ccccn1	1.22	54	
O=C(CSc1nnc(-c2ccccc2)o1)NC(=O)Nc1cccc(Cl)c1	1.03	34	
O=C(CSc1nnc(-c2cccc(Cl)c2)o1)NC(=O)Nc1ccccc1	1.01	42.5	
Cc1cccc(-c2nnc(SCC(=O)NC(=O)Nc3ccccc3)o2)c1	1.11	46.7	
CC(C)c1ccc(NC(=O)NC(=O)CSc2nnc(-c3ccccc3)o2)cc1	1.18	38.9	
O=C(CSc1nnc(-c2cccc(Cl)c2)o1)NC(=O)Nc1ccccn1	1.09	48.4	
O=C(CSc1nnc(-c2ccc(Cl)cc2)o1)NC(=O)Nc1ccccn1	1.24	54.9	
O=C(CSc1nnc(-c2ccccc2)o1)Nc1ccccc1	1.09	46.6	
COc1ccc(NC(=O)NC(=O)CSc2nnc(-c3ccc(O)cc3)o2)cc1	1.68	60.5	
O=C(CSc1nnc(-c2ccccc2)o1)Nc1ccccn1	0.97	41.4	
COc1cc(NC(=O)NC(=O)CSc2nnc(-c3ccccc3)o2)cc(OC)c1OC	1.3	43	
O=C(CSc1nnc(-c2ccc(O)cc2)o1)NC(=O)Nc1ccccc1	1.71	71.7	
O=C(CSc1nnc(-c2ccccc2O)o1)NC(=O)Nc1ccccn1	1.48	65.7	
COc1ccc(NC(=O)NC(=O)CSc2nnc(-c3ccccc3)o2)cc1	2.69	88.4	Activity [14]: 48%; Activity [15]: Dose-Dependent Effect; Activity [16]: Dose-Dependent Effect; Activity [6]: Active; Activity [17]: Active; Activity [18]: Active; Activity [19]: Active; Activity [20]: Active; Activity [21]: Active; Activity [22]: Active; Activity [23]: Non-Toxic; Activity [9]: Active; Activity [24]: Dose-Dependent Effect
O=C(CSc1nnc(-c2cccnc2)o1)NC(=O)Nc1ccccc1	0.93	39.2	

SMILES	fold change (FC) [1]	viability at 20 µM [2] [%]	also measured
O=C(CSc1nnc(-c2ccc(O)cc2)o1)NC(=O)Nc1cccnc1	1.64	64.8	
O=C(CSc1nnc(-c2ccc(O)cc2)o1)NC(=O)NN1CCCCC1	0.74	29.2	
O=C(CSc1nnc(-c2ccccc2)o1)NC(=O)Nc1ccccc1Cl	1.05	34.5	
O=C(Cn1cc(CSc2nnc(-c3ccc(O)cc3)o2)nn1)NC(=O)Nc1ccccn1	0.52	18.7	
Cc1ccc(NC(=O)NC(=O)CSc2nnc(-c3ccccc3)o2)cc1	1.67	54.8	
COc1ccc(NC(=O)NC(=O)Cn2cc(CSc3nnc(-c4ccccc4)o3)nn2)cc1	0.51	18.4	
O=C(CSc1nnc(-c2ccccc2)o1)NC(=O)Nc1ccccc1	1.32	52.9	
Cc1ccccc1-c1nnc(SCC(=O)NC(=O)Nc2ccccn2)o1	1.5	66.5	
O=C(CSc1nnc(-c2ccc(O)cc2)o1)NC(=O)NN1CCOCC1	1.12	44.2	
Cc1ccccc1-c1nnc(SCC(=O)NC(=O)Nc2ccccc2)o1	1.34	56	
Cc1ccc(-c2nnc(SCC(=O)NC(=O)Nc3ccccn3)o2)cc1	1.6	70.9	
O=C(CSc1nnc(-c2cccnc2)o1)NC(=O)Nc1ccccn1	0.91	40.5	
COc1ccc(NC(=O)CSc2nnc(-c3ccc(O)cc3)o2)cc1	1	42.9	
O=C(CSc1nnc(-c2ccc(O)cc2)o1)Nc1ccccn1	1.54	55.3	
O=C(CSc1nnc(-c2ccccn2)o1)NC(=O)Nc1ccccc1	0.85	35.5	
O=C(CSc1nnc(-c2ccccc2Cl)o1)NC(=O)Nc1ccccc1	0.98	40.9	
Cc1cccc(-c2nnc(SCC(=O)NC(=O)Nc3ccccn3)o2)c1	1.21	53.5	
Cc1ccc(-c2nnc(SCC(=O)NC(=O)Nc3ccccc3)o2)cc1	1.38	57.7	
O=C(CSc1nnc(-c2ccncc2)o1)NC(=O)Nc1ccccn1	1.02	45.3	
O=C(CSC(=S)N1CCNCC1)NC(=O)Nc1ccccc1	1.03	41.1	
O=C(CSc1nnc(-c2ccccc2)o1)NC(=O)Nc1ccccn1	1.79	72.5	
O=C(CSc1nnc(-c2ccccc2Cl)o1)NC(=O)Nc1ccccn1	0.96	42.6	
O=C(CSc1nnc(-c2ccncc2)o1)NC(=O)Nc1ccccc1	1.16	48.5	
COCCCNC(=O)NC(=O)CSc1nnc(-c2ccc(O)cc2)o1	1.76	69.5	
